Data reported in US20250136931A1, “AN IMPROVED CELL CULTURE PROCESS FOR PRODUCTION OF PROTEIN” (KASHIV BIOSCIENCES, LLC, priority 2022, published 2025).

What was measured:
[1] = test system: host cells producing antibody; test: Fed-batch bioreactor (Ambr250) cell culture for antibody production, control process spiked with MitoTempo; type: cell-based; details: total 25 nM, 5 nM each on day 3, 5, 7, 9, 11
Protocol: (§1) The cell bank vial is thawed in Shake flask 125 (SF125) into the seed media and cell counts are checked. The incubation is continued for 3-5 days during which cells reached the optimum cell density for subculture. The cells are subsequently expanded in Shake flask 500 (SF500) to generate sufficient inoculum for Ambr®250 bioreactors (250 mL).
Production Fed batch bioreactor run is executed at Ambr®250 bioreactor using process parameters as mentioned below.
The standard fed-batch culture process involved cell culturing for 12 days and it is harvested depending upon the culture cell viability.
(§2) When the control process is spiked with antioxidant MitoTempo (total 25 nM added throughout the culturing period) 5 nM each on day 3, 5, 7, 9, 11. It is observed that the harvested protein titer is improved when analysed by Protein-A HPLC method. It is also observed that overall oxidation of the product is decreased when analysed by LC-MS method. The overall peak viable cell density of the culture is also found to have increased.

[2] = test system: host cells producing fusion protein (CTLA4Ig); test: Fed-batch bioreactor (Ambr250) cell culture for fusion protein (CTLA4Ig) production, control process spiked with Mito-TEMPO; type: cell-based
Protocol: as §1, with “was” for “is”, “were” for “are”
Production Fed batch bioreactor run was executed at Ambr®250 bioreactor using process parameters as mentioned below.
The standard fed-batch culture process involved cell culturing for 12 days and was harvested depending upon the culture cell viability.
as §2, with “was” for “is”, “Mito Tempo” for “MitoTempo”, “improved by 28%” for “improved”, “decreased by 18%” for “decreased”, “increased by 11%.” for “increased.”

[3] = CTLA4Ig culture, total 25 nM, 5 nM each on day 3, 5, 7, 9, 11
[4] = CTLA4Ig fed-batch culture, 12 days, 5 nM each on Day 3, 5, 7, 9, 11 (total 25 nM)

Compound: CC1(C)CC(NC(=O)C[P+](c2ccccc2)(c2ccccc2)c2ccccc2)CC(C)(C)N1[O] [MitoTempo, Mito-TEMPO]
- harvested protein titer (Protein-A HPLC) versus control process [1]: improved
- overall oxidation of the product (LC-MS) versus control process [1]: decreased
- overall peak viable cell density of the culture versus control process [1]: increased
- harvested protein titer improved (Protein-A HPLC) versus control process [2, 3]: 28%
- overall oxidation of the product decreased (LC-MS) versus control process [2, 3]: 18%
- overall peak viable cell density increased versus control process [2, 3]: 11%
- Harvest Oxidation (%) by LC-MS [2, 4]: 12.2%
- Harvest Titer by Protein-A HPLC [2, 4]: 2.7 g/L
- Peak cell density by Automated cell counter [2, 4]: 18.8 ×10^6 cells/mL
